What follows are compounds tested against T1, human kinase Mps-1 (Homo sapiens, UniProt P33981) (assay: Mps-1 Kinase Assay (TR-FRET)). Conditions: 10 μM ATP.
T1 construct: N-terminally GST-tagged human full length recombinant Mps-1 kinase; purchased Invitrogen, Karslruhe, Germany PV4071
T1 sequence (P33981 1-857): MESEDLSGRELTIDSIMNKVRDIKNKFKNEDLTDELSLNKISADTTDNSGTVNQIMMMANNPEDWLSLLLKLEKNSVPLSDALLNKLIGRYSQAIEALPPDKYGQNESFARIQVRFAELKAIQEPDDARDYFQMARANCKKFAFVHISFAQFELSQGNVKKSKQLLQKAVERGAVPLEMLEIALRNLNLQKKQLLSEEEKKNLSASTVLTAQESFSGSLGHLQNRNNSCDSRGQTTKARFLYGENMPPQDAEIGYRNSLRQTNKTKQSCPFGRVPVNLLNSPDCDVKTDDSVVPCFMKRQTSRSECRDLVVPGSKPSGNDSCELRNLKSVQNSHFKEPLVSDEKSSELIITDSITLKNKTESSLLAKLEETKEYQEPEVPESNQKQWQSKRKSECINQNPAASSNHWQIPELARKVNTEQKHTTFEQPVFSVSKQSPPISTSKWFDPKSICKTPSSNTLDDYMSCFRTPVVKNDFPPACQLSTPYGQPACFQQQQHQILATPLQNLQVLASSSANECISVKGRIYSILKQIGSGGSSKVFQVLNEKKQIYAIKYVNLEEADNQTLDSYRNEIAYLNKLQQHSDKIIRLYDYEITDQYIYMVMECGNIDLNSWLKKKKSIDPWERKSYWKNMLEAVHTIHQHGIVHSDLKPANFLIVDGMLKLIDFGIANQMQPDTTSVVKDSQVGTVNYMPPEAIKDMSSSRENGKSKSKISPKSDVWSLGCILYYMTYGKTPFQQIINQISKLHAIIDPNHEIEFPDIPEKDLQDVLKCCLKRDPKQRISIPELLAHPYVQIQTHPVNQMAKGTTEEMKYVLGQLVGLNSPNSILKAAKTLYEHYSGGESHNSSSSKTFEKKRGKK
Assay type: biochemical
Protocol: The human kinase Mps-1 phosphorylates a biotinylated substrate peptide. Detection of the phosphorylated product is achieved by time-resolved fluorescence resonance energy transfer (TR-FRET) from Europium-labelled anti-phospho-Serine/Threonine antibody as donor to streptavidin Labelled with cross-linked allophycocyanin (SA-XLent) as acceptor. Compounds are tested for their inhibition of the kinase activity.
N-terminally GST-tagged human full length recombinant Mps-1 kinase (purchased from Invitrogen, Karslruhe, Germany, cat. no PV4071) was used. As substrate for the kinase reaction a biotinylated peptide of the amino-acid sequence […] (C-terminus in amide form, purchased from Biosynthan GmbH, Berlin) was used.
The concentration of Mps-1 in the assay was adjusted to the activity of the enzyme lot and was chosen appropriate to have the assay in the linear range, typical enzyme concentrations were in the range of about 1 nM (final conc. in the 5 μl assay volume).
The resulting mixture was incubated 1 h at 22° C. to allow the binding of the phosphorylated peptide to the anti-phospho(Ser/Thr)-Europium-antibody. Subsequently the amount of phosphorylated substrate was evaluated by measurement of the resonance energy transfer from the Europium-labelled anti-phospho(Ser/Thr) antibody to the Streptavidin-XLent.
`Cc1cc(-c2cnc3c(NCCC(F)(F)F)cc(C(O)c4cccc(F)c4O)nn23)ccc1C(=O)NC1CC1` (racemic) [Compound A3, (RS)—N-Cyclopropyl-4-{6-[(3-fluoro-2-hydroxyphenyl)(hydroxy)methyl]-8-[(3,3,3-trifluoropropyl)amino]imidazo[1,2-b]pyridazin-3-yl}-2-methylbenzamide] gave an IC50 of 0.2 nM. In the case of `Cc1cc(-c2cnc3c(NCCC(F)(F)F)cc(C(C)(O)c4cccc(F)c4O)nn23)ccc1C(=O)NC1CC1` (racemic) [Compound A4, (RS)—N-Cyclopropyl-4-{6-[1-(3-fluoro-2-hydroxyphenyl)-1-hydroxyethyl]-8-[(3,3,3-trifluoropropyl)amino]imidazo[1,2-b]pyridazin-3-yl}-2-methylbenzamide], the IC50 is reported as 0.3 nM. `Cc1cc(-c2cnc3c(NCCC(F)(F)F)cc(C(F)c4cccc(F)c4)nn23)ccc1C(=O)NC1CC1` (racemic) [Compound A5, (RS)—N-Cyclopropyl-4-{6-[fluoro(3-fluorophenyl)methyl]-8-[(3,3,3-trifluoropropyl)amino]imidazo[1,2-b]pyridazin-3-yl}-2-methylbenzamide] gave an IC50 of 0.7 nM. `C=C(c1cc(NCCC(F)(F)F)c2ncc(-c3ccc(C(=O)NC4CC4)c(C)c3)n2n1)c1cc(F)ccc1F` [Compound A19, N-Cyclopropyl-4-{6-[1-(2,5-difluorophenyl)vinyl]-8-[(3,3,3-trifluoropropyl)amino]imidazo[1,2-b]pyridazin-3-yl}-2-methylbenzamide] gave an IC50 of 0.6 nM. `Cc1cc(-c2cnc3c(NCCC(F)(F)F)cc(C4(c5cc(F)ccc5F)CC4)nn23)ccc1C(=O)NC1CC1` [Compound A20, N-Cyclopropyl-4-{6-[1-(2,5-difluorophenyl)cyclopropyl]-8-[(3,3,3-trifluoropropyl)amino]imidazo[1,2-b]pyridazin-3-yl}-2-methylbenzamide] gave an IC50 of 0.8 nM. `Cc1cc(-c2cnc3c(NCCC(F)(F)F)cc(C(F)(F)c4cc(F)ccc4F)nn23)ccc1C(=O)NC1CC1` [Compound A21, N-Cyclopropyl-4-{6-[(2,5-difluorophenyl)(difluoro)methyl]-8-[(3,3,3-trifluoropropyl)amino]imidazo[1,2-b]pyridazin-3-yl}-2-methylbenzamide] was tested, and the IC50 was 0.5 nM.

Each compound was assayed on rat hepatocytes (assay: In vitro metabolic stability in rat hepatocytes). Conditions: 1 μM test compound, calculated from half-life.
Assay type: in vitro ADME
Protocol: Investigation of In Vitro Metabolic Stability in Rat Hepatocytes (Including Calculation of Hepatic In Vivo Blood Clearance (CL))
Hepatocytes from Han Wistar rats were isolated via a 2-step perfusion method. After perfusion, the liver was carefully removed from the rat: the liver capsule was opened and the hepatocytes were gently shaken out into a Petri dish with ice-cold WME. The resulting cell suspension was filtered through sterile gaze in 50 ml falcon tubes and centrifuged at 50×g for 3 min at room temperature.
The cell pellet was resuspended in 30 ml WME and centrifuged through a Percoll® gradient for 2 times at 100×g. The hepatocytes were washed again with Williams' medium E (WME) and resuspended in medium containing 5% FCS. Cell viability was determined by trypan blue exclusion.
For the metabolic stability assay liver cells were distributed in WME containing 5% FCS to glass vials at a density of 1.0×10^6 vital cells/m. The test compound was added to a final concentration of 1 μM. During incubation, the hepatocyte suspensions were continuously shaken and aliquots were taken at 2, 8, 16, 30, 45 and 90 min, to which equal volumes of cold methanol were immediately added. Samples were frozen at −20° C. over night, after subsequently centrifuged for 15 minutes at 3000 rpm and the supernatant was analyzed with an Agilent 1200 HPLC-system with LCMS/MS detection.
The half-life of a test compound was determined from the concentration-time plot. From the half-life the intrinsic clearances were calculated. Together with the additional parameters liver blood flow, amount of liver cells in vivo and in vitro. The hepatic in vivo blood clearance (CL) and the maximal oral bioavailability (Fmax) was calculated. The following parameter values were used: Liver blood flow—4.2 L/h/kg rat; specific liver weight—32 g/kg rat body weight; liver cells in vivo—1.1×10^8 cells/g liver, liver cells in vitro—0.5×10^6/ml.
With `Cc1cc(-c2cnc3c(NCCC(F)(F)F)cc(C(O)c4cccc(F)c4O)nn23)ccc1C(=O)NC1CC1` (racemic) [Compound A3, (RS)—N-Cyclopropyl-4-{6-[(3-fluoro-2-hydroxyphenyl)(hydroxy)methyl]-8-[(3,3,3-trifluoropropyl)amino]imidazo[1,2-b]pyridazin-3-yl}-2-methylbenzamide] the “Fmax (maximal oral bioavailability)” value was 18%. `Cc1cc(-c2cnc3c(NCCC(F)(F)F)cc(C(C)(O)c4cccc(F)c4O)nn23)ccc1C(=O)NC1CC1` (racemic) [Compound A4, (RS)—N-Cyclopropyl-4-{6-[1-(3-fluoro-2-hydroxyphenyl)-1-hydroxyethyl]-8-[(3,3,3-trifluoropropyl)amino]imidazo[1,2-b]pyridazin-3-yl}-2-methylbenzamide] was tested, and the “Fmax (maximal oral bioavailability)” value was 36%. For `Cc1cc(-c2cnc3c(NCCC(F)(F)F)cc(C(F)c4cccc(F)c4)nn23)ccc1C(=O)NC1CC1` (racemic) [Compound A5, (RS)—N-Cyclopropyl-4-{6-[fluoro(3-fluorophenyl)methyl]-8-[(3,3,3-trifluoropropyl)amino]imidazo[1,2-b]pyridazin-3-yl}-2-methylbenzamide], the “Fmax (maximal oral bioavailability)” value was 49%. For `COc1ccc(Cc2cc(NCCC(F)(F)F)c3ncc(-c4ccc(C(=O)NC5CC5)c(C)c4)n3n2)cc1F` [Comparative Example 1, N-Cyclopropyl-4-{6-(3-fluoro-4-methoxybenzyl)-8-[(3,3,3-trifluoropropyl)amino]imidazo[1,2-b]pyridazin-3-yl}-2-methylbenzamide, reference compound], the “Fmax (maximal oral bioavailability)” value was 29%. In the case of `Cc1cc(-c2cnc3c(NCCC(F)(F)F)cc(Cc4cccc(F)c4O)nn23)ccc1C(=O)NC1CC1` [Comparative Example 2, N-Cyclopropyl-4-{6-(3-fluoro-2-hydroxybenzyl)-8-[(3,3,3-trifluoropropyl)amino]imidazo[1,2-b]pyridazin-3-yl}-2-methylbenzamide, reference compound], the “Fmax (maximal oral bioavailability)” value is reported as 3%. In the case of `Cc1cc(-c2cnc3c(NCCC(F)(F)F)cc(Cc4cccc(F)c4)nn23)ccc1C(=O)NC1CC1` [Comparative Example 3, N-Cyclopropyl-4-{6-(3-fluorobenzyl)-8-[(3,3,3-trifluoropropyl)amino]imidazo[1,2-b]pyridazin-3-yl}-2-methylbenzamide, reference compound], the “Fmax (maximal oral bioavailability)” value is reported as 43%. In the case of `COc1cccc(Cc2cc(NCCC(F)(F)F)c3ncc(-c4ccc(C(=O)NC5CC5)c(C)c4)n3n2)c1` [Comparative Example 4, N-cyclopropyl-4-{6-(3-methoxybenzyl)-8-[(3,3,3-trifluoropropyl)amino]imidazo[1,2-b]pyridazin-3-yl}-2-methylbenzamide, reference compound], the “Fmax (maximal oral bioavailability)” value is reported as 18%. `COc1ccc(Cc2cc(NCCC(F)(F)F)c3ncc(-c4ccc(C(=O)NC5CC5)c(C)c4)n3n2)cc1` [Comparative Example 5, N-Cyclopropyl-4-{6-(4-methoxybenzyl)-8-[(3,3,3-trifluoropropyl)amino]imidazo[1,2-b]pyridazin-3-yl}-2-methylbenzamide, reference compound] was tested, and the “Fmax (maximal oral bioavailability)” value was 35%. In the case of `C=C(c1ccc(OC)c(F)c1)c1cc(NCCC(F)(F)F)c2ncc(-c3ccc(C(=O)NC4CC4)c(C)c3)n2n1` [Compound A1, N-Cyclopropyl-4-{6-[1-(3-fluoro-4-methoxyphenyl)ethenyl]-8-[(3,3,3-trifluoropropyl)amino]imidazo[1,2-b]pyridazin-3-yl}-2-methylbenzamide], the “Fmax (maximal oral bioavailability)” value is reported as 39%. With `Cc1cc(-c2cnc3c(NCCC(F)(F)F)cc(C(F)(F)c4cccc(F)c4)nn23)ccc1C(=O)NC1CC1` [Compound A6, N-Cyclopropyl-4-{6-[difluoro(3-fluorophenyl)methyl]-8-[(3,3,3-trifluoropropyl)amino]imidazo[1,2-b]pyridazin-3-yl}-2-methylbenzamide] the “Fmax (maximal oral bioavailability)” value was 70%. With `COc1ccc(C(=O)c2cc(NCCC(F)(F)F)c3ncc(-c4ccc(C(=O)NC5CC5)c(C)c4)n3n2)cc1F` [Compound A13, N-Cyclopropyl-4-{6-(3-fluoro-4-methoxybenzoyl)-8-[(3,3,3-trifluoropropyl)amino]imidazo[1,2-b]pyridazin-3-yl}-2-methylbenzamide] the “Fmax (maximal oral bioavailability)” value was 75%. With `COc1ccc(C(F)(F)c2cc(NCCC(F)(F)F)c3ncc(-c4ccc(C(=O)NC5CC5)c(C)c4)n3n2)cc1` [Compound A16, N-Cyclopropyl-4-{6-[difluoro(4-methoxyphenyl)methyl]-8-[(3,3,3-trifluoropropyl)amino]imidazo[1,2-b]pyridazin-3-yl}-2-methylbenzamide] the “Fmax (maximal oral bioavailability)” value was 56%. With `Cc1cc(-c2cnc3c(NCCC(F)(F)F)cc(C4(c5cccc(F)c5F)CC4)nn23)ccc1C(=O)NC1CC1` [Compound A17, N-Cyclopropyl-4-{6-[1-(2,3-difluorophenyl)cyclopropyl]-8-[(3,3,3-trifluoropropyl)amino]imidazo[1,2-b]pyridazin-3-yl}-2-methylbenzamide] the “Fmax (maximal oral bioavailability)” value was 50%. In the case of `Cc1cc(-c2cnc3c(NCCC(F)(F)F)cc(C4(c5cc(F)ccc5O)CC4)nn23)ccc1C(=O)NC1CC1` [Compound A23, N-cyclopropyl-4-{6-[1-(5-fluoro-2-hydroxyphenyl)cyclopropyl]-8-[(3,3,3-trifluoropropyl)amino]imidazo[1,2-b]pyridazin-3-yl}-2-methylbenzamide], the “Fmax (maximal oral bioavailability)” value is reported as 40%.
